Reference: US12365687B2 (Hoffmann-La Roche Inc., priority 2021, dated 2025)

Columns and labels:
[1] = molecular target: human GABAA α5β2γ1 receptor (Homo sapiens (Human), UniProt P31644+Q8N1C3); assay: Radioligand binding assay for γ1-containing GABAA subtypes, [3H]RO7239181 competition (α5β2γ1)
[2] = molecular target: human GABAA α2β2γ1 receptor (Homo sapiens (Human), UniProt P47869+Q8N1C3); assay: Radioligand binding assay for γ1-containing GABAA subtypes, [3H]RO7239181 competition (α2β2γ1)
[3] = molecular target: human GABAA α1β3γ2 receptor (Homo sapiens (Human), UniProt P14867+P18507); assay: Radioligand binding assay for γ2-containing GABAA subtypes, [3H]Flumazenil competition (α1β3γ2); conditions: for γ2/γ1 Selectivity Ratio: Ki α1β3γ2 (nM)/Ki α2β2γ1 (nM); for LogSel: Log[Ki α1β3γ2 (nM)/Ki α2β2γ1 (nM)]
[4] = molecular target: α2β2γ1 GABAA receptor subtype (Homo sapiens (Human), UniProt P47869+Q8N1C3); assay: Two-electrode voltage clamp electrophysiology in Xenopus oocytes expressing GABAA receptors (modulation of GABA EC20 current); assay type: cell-based; conditions: for Efficacy (GABA)%: % modulation of GABA EC20 = 100*(Fold increase-1), α2β2γ1 oocytes, compound at approx. 30-fold Ki; for Fold increase h-GABA-A α2β2γ1 oocyte @ 30-fold Ki: Xenopus oocytes expressing α2β2γ1, compound at approx. 30-fold its Ki α2β2γ1, GABA EC20 current
Procedure, shortened: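 Two-electrode voltage clamp at −80 mV, room temperature, 3-5 days after mRNA injection into oocytes. GABA applied at EC20 for 1.5 min, twice, with compound during second application; at least 3 oocytes per concentration. Efficacy = extremum of point-by-point current ratio, expressed as 100×(fold increase−1).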

[5] = Ki h-GABAA α2β2γ1, [3H]RO7239181 competition binding, human GABAA α2β2γ1
[6] = Ki h-GABAA α2β2γ1, displacement of [3H]RO7239181, membranes of HEK293F cells expressing human receptors, means of two determinations

| Structure (SMILES) | Ki [1] [nM] | Ki [2, 5] [nM] | Ki [2, 6] [nM] | Ki [3] [nM] | γ2/γ1 Selectivity Ratio [3] | LogSel [3] | Efficacy (GABA)% [4] [%] | Fold increase h-GABA-A α2β2γ1 oocyte @ 30-fold Ki [4] |
| --- | --- | --- | --- | --- | --- | --- | --- | --- |
| C[C@@H]1N=C(c2ncccc2F)c2c(ccc(Cl)c2Cl)-n2nc(C(=O)N3CC4(CCOCC4)C3)nc21 [Example 95, 7-oxa-2-azaspiro[3.5]nonan-2-yl-[(4S)-7,8-dichloro-6-(3-fluoro-2-pyridyl)-4-methyl-4H-[1,2,4]triazolo[1,5-a][1,4]benzodiazepin-2-yl]methanone] | 20.2 | 47.6 | 47.6 | 9440 | 198.4 | 2.30 | 126 | 2.26 |
| C[C@@H]1N=C(c2c(F)cccc2F)c2c(ccc(Cl)c2Cl)-n2nc(C(=O)N3CC4(CCCCO4)C3)nc21 [Example 96, [(4S)-7,8-dichloro-6-(2,6-difluorophenyl)-4-methyl-4H-[1,2,4]triazolo[1,5-a][1,4]benzodiazepin-2-yl]-(5-oxa-2-azaspiro[3.5]nonan-2-yl)methanone] | 2.65 | 6.4 | 6.42 | 933 | 145.4 | 2.16 | 52 | 1.52 |
| C[C@@H]1N=C(c2ncccc2F)c2c(ccc(Cl)c2Cl)-n2nc(C(=O)N3CC4(CCCO4)C3)nc21 [Example 97, [(4S)-7,8-dichloro-6-(3-fluoro-2-pyridyl)-4-methyl-4H-[1,2,4]triazolo[1,5-a][1,4]benzodiazepin-2-yl]-(5-oxa-2-azaspiro[3.4]octan-2-yl)methanone] | 8.64 | 14.8 | 14.8 | 3590 | 242.0 | 2.38 | 95 | 1.95 |
| C[C@@H]1N=C(c2ncccc2F)c2c(ccc(Cl)c2Cl)-n2nc(C(=O)N3CC4(CCO4)C3)nc21 [Example 98, [(4S)-7,8-dichloro-6-(3-fluoro-2-pyridyl)-4-methyl-4H-[1,2,4]triazolo[1,5-a][1,4]benzodiazepin-2-yl]-(1-oxa-6-azaspiro[3.3]heptan-6-yl)methanone] | 29.8 | 81.7 | 81.8 | 8110 | 99.2 | 2.00 | 158 | 2.58 |
| C[C@@H]1N=C(c2c(F)cccc2F)c2c(ccc(Cl)c2Cl)-n2nc(C(=O)N3CC4(CCOCC4)C3)nc21 [Example 99, [(4S)-7,8-dichloro-6-(2,6-difluorophenyl)-4-methyl-4H-[1,2,4]triazolo[1,5-a][1,4]benzodiazepin-2-yl]-(7-oxa-2-azaspiro[3.5]nonan-2-yl)methanone] | 3.29 | 4.5 | 4.45 | 1550 | 348.9 | 2.54 | 52 | 1.52 |
| C[C@@H]1N=C(c2ncccc2F)c2c(ccc(Cl)c2Cl)-n2nc(C(=O)N3CC4(CCOC4)C3)nc21 [Example 100, [(4S)-7,8-dichloro-6-(3-fluoro-2-pyridyl)-4-methyl-4H-[1,2,4]triazolo[1,5-a][1,4]benzodiazepin-2-yl]-(6-oxa-2-azaspiro[3.4]octan-2-yl)methanone] | 7.53 | 41.5 | 41.5 | 9110 | 219.5 | 2.34 | 128 | 2.28 |
| C[C@@H]1N=C(c2ncccc2F)c2c(ccc(Cl)c2Cl)-n2nc(C(=O)N3CC4(CCCCO4)C3)nc21 [Example 101, [(4S)-7,8-dichloro-6-(3-fluoro-2-pyridyl)-4-methyl-4H-[1,2,4]triazolo[1,5-a][1,4]benzodiazepin-2-yl]-(5-oxa-2-azaspiro[3.5]nonan-2-yl)methanone] | 14.4 | 38 | 38 | 8680 | 228.3 | 2.36 | 97 | 1.97 |
| C[C@@H]1N=C(c2ncccc2F)c2c(ccc(Cl)c2Cl)-n2nc(C(=O)N3CC4(COC4)C3)nc21 [Example 102, [(4S)-7,8-dichloro-6-(3-fluoro-2-pyridyl)-4-methyl-4H-[1,2,4]triazolo[1,5-a][1,4]benzodiazepin-2-yl]-(2-oxa-6-azaspiro[3.3]heptan-6-yl)methanone] | 6.83 | 51.5 | 51.5 | 7250 | 140.7 | 2.15 | 143 | 2.43 |
| [2H]C([2H])([2H])OC1CN(C(=O)c2nc3n(n2)-c2ccc(C(F)(F)F)c(Cl)c2C(c2ncccc2F)=N[C@H]3C)C1 [Example 104, [(4S)-7-chloro-6-(3-fluor-2-pyridyl)-4-methyl-8-(trifluoromethyl)-4H-[1,2,4]triazolo[1,5-a][1,4]benzodiazepin-2-yl]-[3-(trideuteriomethoxy)azetidin-1-yl]methanone] | 6.36 | 37.3 | 37.3 | 6300 | 168.8 | 2.23 | 117 | 2.17 |
| C[C@@H]1N=C(c2c(F)cccc2F)c2c(ccc(C(F)(F)F)c2Cl)-n2nc(C(=O)NC[C@@H](C)O)nc21 [Example 105, (4S)-7-chloro-6-(2,6-difluorophenyl)-N-[(2R)-2-hydroxypropyl]-4-methyl-8-(trifluoromethyl)-4H-[1,2,4]triazolo[1,5-a][1,4]benzodiazepine-2-carboxamide] | 5.05 | 13.9 | 13.9 | 5130 | 368.4 | 2.57 | 98 | 1.98 |
| C[C@@H]1N=C(c2c(F)cccc2F)c2c(ccc(Cl)c2Cl)-n2nc(C(=O)N3CC4(CCCO4)C3)nc21 [Example 108, [(4S)-7,8-dichloro-6-(2,6-difluorophenyl)-4-methyl-4H-[1,2,4]triazolo[1,5-a][1,4]benzodiazepin-2-yl]-(5-oxa-2-azaspiro[3.4]octan-2-yl)methanone] | 2.59 | 3.9 | 3.92 | 688 | 175.8 | 2.24 | 46 | 1.46 |
| C[C@@H]1N=C(c2c(F)cccc2F)c2c(ccc(C(F)(F)F)c2Cl)-n2nc(C(=O)NCC#N)nc21 [Example 110, (4S)-7-chlor-N-(cyanomethyl)-6-(2,6-difluorophenyl)-4-methyl-8-(trifluoromethyl)-4H-[1,2,4]triazolo[1,5-a][1,4]benzodiazepine-2-carboxamide] | 2.64 | 12.1 | 12.1 | 2480 | 205.1 | 2.31 | 119 | 2.19 |
| Cc1cnc2n1-c1ccc(Cl)c(Cl)c1C(c1c(F)cccc1F)=N[C@H]2C [Example 111, (4S)-7,8-dichloro-6-(2,6-difluorophenyl)-1,4-dimethyl-4H-imidazo[1,2-a][1,4]benzodiazepine] | 1.24 | 5.2 | 5.16 | 235 | 45.6 | 1.66 | 35 | 1.35 |
| C[C@@H]1N=C(c2ncccc2F)c2c(ccc(C(F)(F)F)c2Cl)-n2nc(C(=O)N3CC4(COC4)C3)nc21 [Example 112, [(4S)-7-chloro-6-(3-fluoro-2-pyridyl)-4-methyl-8-(trifluoromethyl)-4H-[1,2,4]triazolo[1,5-a][1,4]benzodiazepin-2-yl]-(2-oxa-6-azaspiro[3.3]heptan-6-yl)methanone] | 9.85 | 62 | 62 | > 30000 | 484.1 | 2.68 | 136 | 2.36 |
| C[C@@H]1N=C(c2ncccc2F)c2c(ccc(C(F)(F)F)c2Cl)-n2nc(C(=O)N3CC4(CCCO4)C3)nc21 [Example 113, [(4S)-7-chloro-6-(3-fluoro-2-pyridyl)-4-methyl-8-(trifluoromethyl)-4H-[1,2,4]triazolo[1,5-a][1,4]benzodiazepin-2-yl]-(5-oxa-2-azaspiro[3,4]octan-2-yl)methanone] | 7.04 | 18.9 | 18.9 | 11400 | 604.3 | 2.78 | 76 | 1.76 |
| Cc1cnc2n1-c1ccc(C(F)(F)F)c(Cl)c1C(c1c(F)cccc1F)=N[C@H]2C [Example 115, (4S)-7-chloro-6-(2,6-difluorophenyl)-1,4-dimethyl-8-(trifluoromethyl)-4H-imidazo[1,2-a][1,4]benzodiazepine] | 2.63 | 12.3 | 12.3 | 827 | 67.4 | 1.83 | 49 | 1.49 |
